Here are results for one molecule from patent publication US10995068B2, “Synthetic sphingolipid-like molecules, drugs, methods of their synthesis and methods of treatment” (The Regents of the University of California, priority 2015, dated 2021).

The nature of data set [1]: Mass spectrometry quantification of SH-BC-893 in plasma and tumor. The format is in vivo. Particulars: SW620 xenograft mice, UPLC-MS/MS. The procedure: In many embodiments, exemplary experimentation was carried out to determine whether azacyclic constrained sphingolipid-lipid molecules inhibited neoplastic growth in vivo. To carry out this experimentation, luciferase-expressing SW620 xenografts were generated in mice.
Mass spectrometry quantification of SH-BC-893. As an internal standard, 75 ng FTY720 was added to 50 μl plasma or 50 μl of tumor homogenate (0.25 M sucrose, 25 mM KCl, 50 mM Tris HCl, 0.5 mM EDTA, pH 7.4; 1:9 wt:volume) combined 1:1 with acetonitrile. Proteins were precipitated and removed by centrifugation (10 min at 15,000 rpm) and the supernatant transferred to a fresh tube on ice containing 50 μl of acetonitrile+0.2% acetic acid. After a second de-proteination with acetonitrile+0.2% acetic acid, 20 μl of de-proteinated samples were analyzed by UPLC-MS/MS using a Waters Micromass Quattro Premier XE equipped with a C18 reversed phase column (Waters) with an acetonitrile+0.2% acetic acid gradient elution. The instrument was operated in positive ion mode. Ion transition channels for multiple reaction monitoring were 290→104 for SH-BC-893 with a dwell time of 200 msec. The cone voltage was 30V. Standard curves used for quantitation were linear from 50-1000 ng/ml with an R^2 of 0.98 or greater. Recovery of internal standard was >80%. Tumor concentrations were calculated assuming that 1 gm=1 mL.

Data set [2] relates to autochthonous prostate tumor (pDKO). In words: pDKO autochthonous prostate cancer mouse model. The format is in vivo. The procedure:
To determine the sensitivity, SH-BC-893 was evaluated in a validated genetically-engineered mouse model for invasive castration-resistant prostate cancer that lacks p53 and PTEN expression exclusively in the prostate (pDKO) (Wu X, et al. Am J Clin Exp Urol. 2014; 2(2):111-20; Schwarzenböck S, et al. Theranostics. 2012; 2(3):318-330; Chen Z, et al. Nature. 2005; 436(7051):725-730; the disclosures of which are herein incorporated by reference). […] SH-BC-893, however, still produced a phenotype consistent with starvation as the bound NADH fraction increased and cell permeant nutrients protected mPCE cells from death (FIGS. 65A and 65C). Prostate cancer cells depend on exogenous LDL for growth and survival. […] Ceramide and YM201636 both reduced surface LDLr levels, but LDLr still accumulated in different intracellular compartments (FIG. 66A). Consistent with their ability to block lysosomal fusion (FIG. 61), both YM201636 and SH-BC-893 reduced LDL co-localization with Lysotracker Blue (FIGS. 65F and 65G). In keeping with the inhibition of LDL degradation in lysosomes, cellular lipid droplet content was inversely correlated with the extent of vacuolation (FIG. 66B). In summary, sphingolipid-like compounds, such as SH-BC-893, starve slow-growing neoplasms, such prostate cancer, by down-regulating nutrient transporters and blocking lysosomal nutrient generation.
The ability of starvation-inducing sphingolipid-like drugs to affect the growth of slow growing or autochthonous neoplasms was also evaluated. In C57BL/6 mice bearing mPCE subcutaneous isografts, 60 mg/kg SH-BC-893 was given daily by gavage and slowed tumor growth by 60% similar to results with SW620 xenografts dosed with 20 mg/kg i.p. (FIGS. 53G-I and 65I). At 120 mg/kg, SH-BC-893 inhibited prostate tumor growth by more than 90% (FIG. 65I). […] Akt activity was slightly elevated by SH-BC-893 consistent with loss of TORC1-mediated negative feedback. Thus, sphingolipid-like compounds, such as SH-BC-893, are effective against neoplasms with distinct molecular defects and metabolic characteristics.
SH-BC-893 produces equivalent transporter loss and vacuolation in normal and transformed cells and therefore also limits the access of normal cells to nutrients (FIGS. 51C, 51E, 56B and 56C). […] The lack of toxicity to normal tissues is consistent with the finding that non-transformed cells can adapt to nutrient stress that triggers a bioenergetic crisis in less metabolically flexible tumor cells (FIGS. 53D and 53E).
In vivo studies. Experiments conducted in mice were performed in accordance with the Institutional Animal Care and Use Committee of University of California, Irvine following a power analysis conducted in consultation with the Biostatistics Shared Resource of Chao Family Comprehensive Cancer Center at UCI. Xenografts were produced by injecting 5 million cells subcutaneously in the flank of 10-16 week-old male or female NSG mice. Prostate isografts were produced in the same manner but in male 6-8 wk old C57BL/6 mice. Once tumors reached 100 mm^3, SH-BC-893 was administered by intraperitoneal (i.p.) injection or oral gavage as indicated. Tumor volume was calculated using the formula, volume (mm^3)=length [mm]×(width [mm])^2×0.52; BLI was measured using an IVIS imaging system (Xenogen). To generate pDKO mice on the C57BL6 background, Pten^flox mice (stock No. 0045597) and p53^flox mice (stock No. 008462) were obtained from the Jackson Laboratory and PB-Cre4 mice (strain #01XF5) were obtained from the NCI-Frederick Mouse Repository. Age-matched cohorts of pDKO males were generated by in vitro fertilization executed with the assistance of the Transgenic Mouse Facility at UC Irvine. Treatment was begun at 6-7 wks of age. […] Tumor samples were processed and imaged by the Pathology Research Services Core Facility at UC Irvine. Blood chemistry was analyzed by IDEXX BioResearch and complete blood counts were performed using a Hemavet hematology system.

The test system of data set [3] is cellular oxygen consumption. In words: Cellular oxygen consumption. Particulars: XF24 Extracellular Flux Analyzer. The format is cell-based. From the text: Cells treated with oligomycin or rotenone/antimycin A, as expected, compensated for the loss of oxidative phosphorylation by increasing glycolysis, reducing the bound NADH fraction (FIG. 51F). Conversely, the glycolysis inhibitor 2-DG and starvation increased oxidative phosphorylation and the bound to free NADH ratio. SH-BC-893 mimicked the effect of amino acid and glucose starvation, increasing the bound NADH fraction and cellular oxygen consumption (FIGS. 51F and 51G). Cells responded similarly to the anti-inflammatory drug FTY720. Thus, the metabolic changes triggered by SH-BC-893 parallel those seen in cells with restricted access to key metabolic substrates.
Cell analysis: Viability and 4F2hc expression are determined by vital dye exclusion and flow cytometry. Oxygen consumption is measured with an XF24 Extracellular Flux Analyzer (Seahorse Bioscience); values are normalized to total protein. Confocal microscopy is performed on either a Zeiss LSM780 or a Nikon Eclipse Ti; vacuolation was monitored using a Nikon TE2000-S equipped with DIC filters. Anchorage-independent growth of SW620 cells is measured in DMEM-10 containing 0.35% agarose with a 0.5% agarose bottom layer. […] Plates were incubated at 37° C. in a humidified atmosphere containing 5% CO2 and colonies were counted after 12 days.

For `CCCCCCCCc1ccc([C@H]2CCN[C@@H]2CO)cc1.Cl` [Compound 5, (2S,3R)-2-(hydroxymethyl)-3-(4-octylphenyl)Pyrrolidinium chloride], in data set [1], the “concentration in plasma at sacrifice” value is reported as “low micromolar concentrations” and the “concentration in tumors at sacrifice” value is “low micromolar concentrations”. In addition, the “histopathology of intestinal crypts” value in data set [2] (mice treated with 120 mg/kg for 11 weeks) is recorded as “normal”. Further, the weight gain entry in data set [2] (pDKO mice) is given as “gained less weight than untreated mice”. For the same molecule, the “decrease of autochthonous tumor growth” value in data set [2] (pDKO mice, 60 mg/kg) was found to be 62%. For the same molecule, the “decrease of autochthonous tumor growth” value in data set [2] (pDKO mice, 120 mg/kg) is on record as 82%. For the same molecule, the “prostate tumor progression, histology” value in data set [2] (pDKO mice, treated mice exclusively exhibited prostatic intraepithelial neoplasia) is “slowed prostate tumor progression”. The “TORC1-dependent ribosomal protein S6 phosphorylation in tumors” value in data set [2] (treated prostate tumors) was “reduced”. For the same molecule, the cellular oxygen consumption result in data set [3] is reported as “increasing”.
